Experimental data: ChEMBL document CHEMBL5649166, “RIP3 induces apoptosis independent of pronecrotic kinase activity” (Mol Cell, 2014)

Legend:
[1] = biological target: T1, Dual specificity tyrosine-phosphorylation-regulated kinase 3 (Homo sapiens) (UniProt O43781); experiment: Residual activity of human DYRK3 using RRRFRPASPLRGPPK as substrate at 1 uM in presence of 32P-ATP by Hotspot assay relative to control
T1 sequence (whole entry): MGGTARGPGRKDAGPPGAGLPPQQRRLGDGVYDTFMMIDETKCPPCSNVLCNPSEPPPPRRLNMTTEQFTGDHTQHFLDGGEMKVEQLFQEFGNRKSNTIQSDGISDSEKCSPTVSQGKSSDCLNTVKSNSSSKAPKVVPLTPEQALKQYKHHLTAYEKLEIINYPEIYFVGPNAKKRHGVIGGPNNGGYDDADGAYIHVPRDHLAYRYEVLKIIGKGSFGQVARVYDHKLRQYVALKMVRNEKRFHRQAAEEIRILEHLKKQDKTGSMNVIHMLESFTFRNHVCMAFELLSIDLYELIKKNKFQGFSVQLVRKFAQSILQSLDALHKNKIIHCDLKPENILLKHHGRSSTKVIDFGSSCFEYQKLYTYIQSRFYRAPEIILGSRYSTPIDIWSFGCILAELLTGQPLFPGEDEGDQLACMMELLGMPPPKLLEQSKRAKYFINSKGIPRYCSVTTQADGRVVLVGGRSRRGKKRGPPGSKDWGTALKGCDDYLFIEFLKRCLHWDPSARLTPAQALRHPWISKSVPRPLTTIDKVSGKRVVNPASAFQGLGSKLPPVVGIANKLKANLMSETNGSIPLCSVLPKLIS

[2] = biological target: T2, Dual specificity mitogen-activated protein kinase kinase 6 (Homo sapiens) (UniProt P52564); experiment: Inhibition of human MKK6 using p38a (K53A) as substrate at 1 uM in presence of 32P-ATP by Hotspot assay relative to control; values are per cent of control
T2 sequence (whole entry): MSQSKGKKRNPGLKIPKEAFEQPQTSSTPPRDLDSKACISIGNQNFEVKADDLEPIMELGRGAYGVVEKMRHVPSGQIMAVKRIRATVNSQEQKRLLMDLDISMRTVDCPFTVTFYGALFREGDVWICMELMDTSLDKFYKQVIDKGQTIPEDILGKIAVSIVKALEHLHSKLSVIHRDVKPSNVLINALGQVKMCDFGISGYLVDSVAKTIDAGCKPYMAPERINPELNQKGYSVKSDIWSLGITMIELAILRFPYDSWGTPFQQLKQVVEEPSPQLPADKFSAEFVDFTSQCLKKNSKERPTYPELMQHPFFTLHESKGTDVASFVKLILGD

[3] = biological target: T3, Dual specificity tyrosine-phosphorylation-regulated kinase 2 (Homo sapiens) (UniProt Q92630); experiment: Inhibition of human DYRK2 using RRRFRPASPLRGPPK as substrate at 1 uM in presence of 32P-ATP by Hotspot assay relative to control; values are per cent of control
T3 sequence (whole entry): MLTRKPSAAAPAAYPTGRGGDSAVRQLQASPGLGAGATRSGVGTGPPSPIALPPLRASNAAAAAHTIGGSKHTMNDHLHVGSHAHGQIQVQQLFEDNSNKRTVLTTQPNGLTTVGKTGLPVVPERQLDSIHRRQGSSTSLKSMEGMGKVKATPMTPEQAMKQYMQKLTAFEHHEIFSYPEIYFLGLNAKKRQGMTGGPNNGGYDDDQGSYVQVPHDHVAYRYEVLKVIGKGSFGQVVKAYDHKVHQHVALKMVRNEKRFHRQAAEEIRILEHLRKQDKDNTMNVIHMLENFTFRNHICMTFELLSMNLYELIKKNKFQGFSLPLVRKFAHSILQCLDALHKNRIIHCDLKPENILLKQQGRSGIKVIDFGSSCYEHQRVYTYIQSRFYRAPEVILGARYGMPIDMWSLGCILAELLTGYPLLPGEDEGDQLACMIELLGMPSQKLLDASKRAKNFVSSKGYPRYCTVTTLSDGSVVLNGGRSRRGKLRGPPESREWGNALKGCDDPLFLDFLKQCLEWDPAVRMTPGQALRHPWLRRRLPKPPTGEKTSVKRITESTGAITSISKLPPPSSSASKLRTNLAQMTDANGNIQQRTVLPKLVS

[4] = biological target: T4, Tyrosine-protein kinase ITK/TSK (Homo sapiens) (UniProt Q08881); experiment: Inhibition of human ITK using myelin basic protein as substrate at 1 uM in presence of 32P-ATP by Hotspot assay relative to control; values are per cent of control
T4 sequence (whole entry): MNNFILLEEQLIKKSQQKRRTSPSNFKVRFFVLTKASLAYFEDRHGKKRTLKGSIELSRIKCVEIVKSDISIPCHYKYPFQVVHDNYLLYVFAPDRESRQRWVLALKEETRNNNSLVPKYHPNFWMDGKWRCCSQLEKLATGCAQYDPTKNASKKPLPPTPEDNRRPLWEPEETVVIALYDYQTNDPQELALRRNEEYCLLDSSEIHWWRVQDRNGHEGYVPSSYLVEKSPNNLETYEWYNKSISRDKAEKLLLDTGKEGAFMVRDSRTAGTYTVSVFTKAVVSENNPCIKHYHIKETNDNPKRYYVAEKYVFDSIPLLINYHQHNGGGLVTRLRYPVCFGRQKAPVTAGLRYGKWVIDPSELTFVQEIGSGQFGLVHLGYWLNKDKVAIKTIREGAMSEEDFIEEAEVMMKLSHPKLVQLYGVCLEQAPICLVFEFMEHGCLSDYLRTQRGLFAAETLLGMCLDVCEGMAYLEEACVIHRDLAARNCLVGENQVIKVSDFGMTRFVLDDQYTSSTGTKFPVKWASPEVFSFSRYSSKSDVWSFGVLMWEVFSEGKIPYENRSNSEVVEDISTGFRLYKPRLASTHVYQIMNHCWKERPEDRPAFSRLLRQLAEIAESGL

[5] = biological target: T5, Mitogen-activated protein kinase 12 (Homo sapiens) (UniProt P53778); experiment: Inhibition of human P38g using myelin basic protein as substrate at 1 uM in presence of 32P-ATP by Hotspot assay relative to control; values are per cent of control
T5 sequence (whole entry): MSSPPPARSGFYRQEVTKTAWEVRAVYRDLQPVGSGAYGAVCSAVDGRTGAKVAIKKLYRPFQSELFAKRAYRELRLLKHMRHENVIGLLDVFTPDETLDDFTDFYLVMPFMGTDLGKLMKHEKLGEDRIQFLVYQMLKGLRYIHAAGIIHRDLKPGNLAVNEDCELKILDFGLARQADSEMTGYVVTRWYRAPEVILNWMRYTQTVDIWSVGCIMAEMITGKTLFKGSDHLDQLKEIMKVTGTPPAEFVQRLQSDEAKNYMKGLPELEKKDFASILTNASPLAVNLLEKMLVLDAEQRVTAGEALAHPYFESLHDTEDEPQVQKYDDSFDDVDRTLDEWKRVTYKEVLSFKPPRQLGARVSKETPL

Row | Compound | residual activity [1] [%] | residual activity [2] [%] | residual activity [3] [%] | residual activity [4] [%] | residual activity [5] [%]
1 | Cc1cc(-c2cnc(N)c3c(-c4ccc5scnc5c4)csc23)n(C)n1 | 92.9 | 92.9 | 78.5 | 98.3 | 105
2 | CC(C)S(=O)(=O)c1ccc2nccc(Nc3ccc4scnc4c3)c2c1 | 106 | 91.3 | 101 | 104 | 98.5
3 | CNC(=O)c1ccc2c(c1)ncn2-c1ccc(CC(=O)OC(C)(C)C)cc1 | 101 | 98.5 | 96.1 | 99 | 95.7
